In article PMC4048129 (Chemistry and physics of lipids, 2013):
In brackets after ≈: the same amount, converted by molar mass. Where two headings read alike, the source gives them in different places.

Legend:
[1] = test system: E. coli (ATCC 25922); assay: Microdilution susceptibility testing
[2] = test system: S. saprophyticus (ATCC 15305); assay: Microdilution susceptibility testing; settings: for IC50: ATCC15305, read-out: IC50 ± SEM
[3] = test system: S. aureus (ATCC 29213); assay: Microdilution susceptibility testing; settings: for IC50: ATCC29213, read-out: IC50 ± SEM
[4] = test system: B. cereus (ATCC 10876); assay: Microdilution susceptibility testing; settings: for IC50: ATCC10876, read-out: IC50 ± SEM
[5] = test system: P. aeruginosa (ATCC 27853); assay: Microdilution susceptibility testing; settings: for IC50: ATCC27853, read-out: IC50 ± SEM
[6] = test system: Gram-positive and Gram-negative bacteria; assay: Antibacterial activity against the bacteria of Table 1; settings: for antibacterial activity: all bacteria presented in Table 1, result in words
[7] = test system: K. pneumoniae (ATCC 13883); assay: Microdilution susceptibility testing; settings: for IC50: ATCC13883, read-out: IC50 ± SEM
[8] = test system: Peripheral blood mononuclear cells (PBMC); assay: Cytotoxicity testing, MTT assay; format: cell-based
[9] = test system: CIMRSA 1; assay: Microdilution susceptibility testing; settings: for IC50: read-out: IC50 ± SEM
[10] = test system: CIMRSA 2; assay: Microdilution susceptibility testing; settings: for IC50: read-out: IC50 ± SEM
[11] = test system: MRSA ATCC 43300; assay: Microdilution susceptibility testing; settings: for IC50: read-out: IC50 ± SEM
[12] = test system: CIMRSA 1; assay: Determination of bactericidal concentration; format: cell-based, Clinical isolate of methicillin-resistant S. aureus; settings: CIMRSA 1 and 2 (both strains, text summary)
[13] = Cytotoxicity testing, MTT assay; format: cell-based; settings: human
[14] = test system: Leishmania donovani amastigotes; settings: cited from earlier work
[15] = biological target: L. donovani DNA topoisomerase IB enzyme (LdTopIB); settings: ref Carballeira et al., 2012; cited from earlier work
[16] = test system: Mycobacterium tuberculosis; settings: ref Carballeira et al., 2006; cited from earlier work
[17] = test system: Neisseria gonorrhoeae, Neisseria meningitidis, and Bacteroides fragilis; settings: N. gonorrhoeae, B. fragilis, ref Konthikamee et al., 1982; cited from earlier work
[18] = Staphylococcus saprophyticus, ATCC15305, S. saprophyticus ATCC 15305, 37°C, 18-24 h
[19] = Staphylococcus aureus, ATCC29213
[20] = Pseudomonas aeruginosa, ATCC27853
[21] = Klebsiella pneumoniae, ATCC13883
[22] = E. coli ATCC 25922, 37°C, 18-24 h
[23] = S. saprophyticus ATCC 15305, 37°C, 18-24 h
[24] = S. aureus ATCC 29213, 37°C, 18-24 h
[25] = B. cereus ATCC 10876, 37°C, 18-24 h
[26] = P. aeruginosa ATCC 27853, 37°C, 18-24 h
[27] = K. pneumoniae ATCC 13883, 37°C, 18-24 h
[28] = Staphylococcus aureus, ATCC43300|MRSA
[29] = peripheral blood mononuclear cells (PBMC)

Compound | MIC ([1]; Escherichia coli, ATCC25922) | MIC [2, 18] | MIC [3, 19] | MIC ([4]; Bacillus cereus, ATCC10876) | MIC [5, 20] | antibacterial activity [6] | MIC [7, 21] | bactericidal concentration [12] | IC50 ([2]; Staphylococcus saprophyticus) | MIC ([9]; Staphylococcus aureus) | IC50 ([9]; Staphylococcus aureus) | IC50 ([3]; Staphylococcus aureus) | MIC ([10]; Staphylococcus aureus) | IC50 ([10]; Staphylococcus aureus) | IC50 ([4]; Bacillus cereus) | MIC [11, 28] | IC50 [11, 28] | IC50 ([7]; Klebsiella pneumoniae) | also measured
CCCCCCCCCCCCCCCC#CCOC1CCCCO1 (stereo not shown) [Compound 2-ODOTHP, 2-(2-Octadecynyloxy)-tetrahydro-2H-pyran] | > 1000 µg/mL | > 1000 µg/mL | > 1000 µg/mL | > 1000 µg/mL | > 1000 µg/mL | inactive | > 1000 µg/mL | – | – | – | – | – | – | – | – | – | – | – | –
CCCCCCCCCCCCCC#CCO [Compound 2-HDOH, 2-Hexadecyn-1-ol] | > 1000 µg/mL | > 1000 µg/mL | > 1000 µg/mL | > 1000 µg/mL | > 1000 µg/mL | not active | > 1000 µg/mL | – | – | – | – | – | – | – | – | – | – | – | –
CCCCCCC#CCCCCCC#CC(=O)O [2,9-HDA] | – | – | – | – | – | – | – | 125 to 500 µg/mL | – | – | – | – | – | – | – | – | – | – | MIC [1, 22]: >1,000 μg/mL; IC50 ± SEM [2, 23]: 61.5 ± 1.2 µg/mL (≈ 248 µM); MIC [2, 23]: 125 µg/mL (≈ 503 µM); PBMC cytotoxicity, IC50 ± SEM [8]: 93.3 ± 0.4 µg/mL; IC50 ± SEM ([9]; CIMRSA 1): 102.1 ± 2.4 µg/mL (≈ 411 µM); MIC ([9]; CIMRSA 1): 250 µg/mL (≈ 1010 µM); IC50 ± SEM [3, 24]: 94.0 ± 0.9 µg/mL (≈ 378 µM); MIC [3, 24]: 250 µg/mL (≈ 1010 µM); IC50 ± SEM ([10]; CIMRSA 2): 76.0 ± 2.4 µg/mL (≈ 306 µM); MIC ([10]; CIMRSA 2): 250 µg/mL (≈ 1010 µM); IC50 ± SEM [4, 25]: 34.2 ± 0.3 µg/mL (≈ 138 µM); MIC [4, 25]: 62.5 µg/mL (≈ 252 µM); IC50 ± SEM ([11]; MRSA ATCC 43300): 203.5 ± 2.6 µg/mL (≈ 819 µM); MIC ([11]; MRSA ATCC 43300): 500 µg/mL (≈ 2010 µM); MIC [5, 26]: >1,000 μg/mL; IC50 ± SEM [7, 27]: 135.4 ± 0.7 µg/mL (≈ 545 µM); MIC [7, 27]: 250 µg/mL (≈ 1010 µM)
COc1cccc(OC)c1C(=O)N[C@@H]1C(=O)N2[C@@H]1SC(C)(C)[C@@H]2C(=O)O [Methicillin, reference compound] | > 1000 µg/mL | 0.12 µg/mL (≈ 0.315 µM) | 0.06 µg/mL (≈ 0.158 µM) | 62.5 µg/mL (≈ 164 µM) | > 1000 µg/mL | – | 0.98 µg/mL (≈ 2.58 µM) | – | 0.06 µg/mL (≈ 0.158 µM) | 7.8 µg/mL (≈ 20.5 µM) | 2.2 µg/mL (≈ 5.78 µM) | 0.03 µg/mL (≈ 0.0789 µM) | 31.3 µg/mL (≈ 82.3 µM) | 11.8 µg/mL (≈ 31 µM) | 38.2 µg/mL (≈ 100 µM) | 1.95 µg/mL (≈ 5.13 µM) | 0.98 µg/mL (≈ 2.58 µM) | 0.36 µg/mL (≈ 0.946 µM) | IC50 at 3 days [13]: 86.1 ± 0.5 µg/mL (≈ 226 µM)
CCCCCCCCCCCCCCCC#CCO [Compound 2-ODOH, 2-Octadecyn-1-ol] | > 1000 µg/mL | > 1000 µg/mL | > 1000 µg/mL | > 1000 µg/mL | > 1000 µg/mL | – | > 1000 µg/mL | – | – | – | – | – | – | – | – | – | – | – | –
CCCCCCCCCCCCCCCCCC#CC(=O)O [Compound 2-ICA, 2-icosanoic acid] | – | – | – | – | – | did not show antibacterial activity | – | – | – | – | – | – | – | – | – | – | – | – | MIC [1, 22]: >1,000 μg/mL; MIC [2, 23]: >1,000 μg/mL; MIC [3, 24]: >1,000 μg/mL; MIC [4, 25]: >1,000 μg/mL; MIC [5, 26]: >1,000 μg/mL; MIC [7, 27]: >1,000 μg/mL
CCCCCCCCCCCCCC#CCOC1CCCCO1 (stereo not shown) [Compound 2-HDOTHP, 2-(2-Hexadecynyloxy)-tetrahydro-2H-pyran] | > 1000 µg/mL | > 1000 µg/mL | > 1000 µg/mL | > 1000 µg/mL | > 1000 µg/mL | inactive | > 1000 µg/mL | – | – | – | – | – | – | – | – | – | – | – | –
CCCCCCCCCCCCCCCC#CC(=O)O [Compound 2-ODA, 2-Octadecynoic acid] | > 1000 µg/mL | 125 µg/mL (≈ 446 µM) | 15.6 µg/mL (≈ 55.6 µM) | 15.6 µg/mL (≈ 55.6 µM) | > 1000 µg/mL | – | 7.8 µg/mL (≈ 27.8 µM) | 15.6 µg/mL | 68.8 µg/mL (≈ 245 µM) | 7.8 µg/mL (≈ 27.8 µM) | 4.3 µg/mL (≈ 15.3 µM) | 8.1 µg/mL (≈ 28.9 µM) | 7.8 µg/mL (≈ 27.8 µM) | 5.5 µg/mL (≈ 19.6 µM) | 11.9 µg/mL (≈ 42.4 µM) | 7.8 µg/mL (≈ 27.8 µM) | 5.5 µg/mL (≈ 19.6 µM) | 5.6 µg/mL (≈ 20 µM) | IC50 at 3 days [13, 29]: 58.9 ± 0.1 µg/mL (≈ 210 µM); IC50 ([14]; L. donovani, ref Carballeira et al., 2012): 11 µM; IC50 [15]: 5.3 µM
CCCCCCCCCC#CCCC#CC(=O)O [2,6-HDA, 2,6-hexadecadiynoic acid] | > 1000 µg/mL | 62.5 µg/mL (≈ 252 µM) | 31.3 µg/mL (≈ 126 µM) | 62.5 µg/mL (≈ 252 µM) | 250 µg/mL (≈ 1010 µM) | – | 62.5 µg/mL (≈ 252 µM) | 125 to 500 µg/mL | 21.5 µg/mL (≈ 86.6 µM) | 62.5 µg/mL (≈ 252 µM) | 39.5 µg/mL (≈ 159 µM) | 14.1 µg/mL (≈ 56.8 µM) | 62.5 µg/mL (≈ 252 µM) | 22.4 µg/mL (≈ 90.2 µM) | 46.1 µg/mL (≈ 186 µM) | 62.5 µg/mL (≈ 252 µM) | 22.3 µg/mL (≈ 89.8 µM) | 31.2 µg/mL (≈ 126 µM) | IC50 at 3 days [13, 29]: 63.4 ± 0.3 µg/mL (≈ 255 µM); IC50 ([5]; Pseudomonas aeruginosa): 132 µg/mL (≈ 533 µM); minimum inhibitory concentrations (MICs) [16]: 141 to 145 µM
O=C(O)c1cn(C2CC2)c2cc(N3CCNCC3)c(F)cc2c1=O [Ciprofloxacin, reference compound] | < 0.008 µg/mL | < 0.002 µg/mL | 0.25 µg/mL (≈ 0.754 µM) | 0.05 µg/mL (≈ 0.151 µM) | 0.24 µg/mL (≈ 0.724 µM) | – | 0.24 µg/mL (≈ 0.724 µM) | – | – | – | – | 0.14 µg/mL (≈ 0.423 µM) | – | – | 0.03 µg/mL (≈ 0.0905 µM) | 0.5 µg/mL (≈ 1.51 µM) | 0.2 µg/mL (≈ 0.604 µM) | 0.13 µg/mL (≈ 0.392 µM) | IC50 at 3 days [13]: 66.4 ± 0.6 µg/mL (≈ 200 µM); IC50 ([5]; Pseudomonas aeruginosa): 0.11 µg/mL (≈ 0.332 µM)
CCCCCCCCCCCCCC#CC(=O)O [Compound 2-HDA, 2-hexadecynoic acid] | > 1000 µg/mL | 15.5 µg/mL (≈ 61.4 µM) | 15.6 µg/mL (≈ 61.8 µM) | 31.3 µg/mL (≈ 124 µM) | 125 µg/mL (≈ 495 µM) | – | 7.8 µg/mL (≈ 30.9 µM) | 7.8 µg/mL | 8.8 µg/mL (≈ 34.9 µM) | 3.9 µg/mL (≈ 15.5 µM) | 3.3 µg/mL (≈ 13.1 µM) | 6.2 µg/mL (≈ 24.6 µM) | 3.9 µg/mL (≈ 15.5 µM) | 3.4 µg/mL (≈ 13.5 µM) | 17.2 µg/mL (≈ 68.1 µM) | 15.6 µg/mL (≈ 61.8 µM) | 9.4 µg/mL (≈ 37.2 µM) | 6.1 µg/mL (≈ 24.2 µM) | MIC [2, 23]: 15.6 µg/mL (≈ 61.8 µM); IC50 at 3 days [13, 29]: 57.2 ± 0.1 µg/mL (≈ 227 µM); IC50 ([14]; L. donovani amastigotes, ref Tasdemir et al., 2010): 17.8 µM; MIC ([9]; Staphylococcus aureus, MRSA): 3.9 µg/mL (≈ 15.5 µM); active concentrations [17]: 5.0 to 21.4 µM; IC50 ([5]; Pseudomonas aeruginosa): 87.8 µg/mL (≈ 348 µM); IC50 [15]: 28.7 µM; MIC ([6]; read-out: MICs): 7.8 to 125 µg/mL (≈ 30.9 to 495 µM); minimum inhibitory concentrations (MICs) [16]: 141 to 145 µM
